Consider 16 compounds from patent US9359363B2, “Identification of compounds that disperse TDP-43 inclusions” (priority 2011, dated 2016).

The first test concerns TDP-43 inclusions in PC12 cells expressing WT TDP-43::GFP. In words: High-throughput screen for inhibition of TDP-43 inclusion formation in inducible TDP-43::GFP PC12 cells (IN Cell Analyzer). The following applies: Rattus norvegicus, PC-12, 18 h, read-out: Inhibition of TDP-43 Inclusion Formation EC50.
Procedure: We generated a Tet-Off inducible PC12 cell line (Clontech; the parent line stably expresses high levels of the Tetracycline binding protein) that is stably transfected with a WT TDP-43::GFP (where the GFP is at the C-terminus). […] The high-throughput screen used the arsenite (50 μM, 18 hrs) treatment protocol, where arsenite was added 1 hr after the test compounds.
We used the automated GE IN Cell Analyzer 1000 microscope system for high throughput analyses. Test chemicals were added to the cells 48 hrs after induction of TDP-43 (by removal of doxycycline). After another 24 hrs, the cells were fixed and double-stained with DAPI (to detect nuclei). Inclusions present in a collar around the nucleus but not fully co-localized with the DAPI stain (FIG. 1) were identified by the IN-Cell analyzer as inclusions. The computer counted the number of cells (based on DAPI-positive nuclei), TDP-43 levels and inclusions per field. The counts from 6 different fields within a well were averaged to develop a measure of the mean number of inclusions per field. This was repeated for every well in a 384 well plate and every plate in the library.
PC12 cells are grown in DMEM, 10% NBS/Pen-Strep, 100 μg/ml hygromycin, 50 μM puromycin and 50 μg/ml doxycycline (the latter is removed for TDP-43 induction).
With `COc1c(C)c2c(c(O)c1C/C=C(\C)CCC(=O)O)C(=O)OC2` [Mycophenolic acid, reference compound], the EC50 was found to be 1500 nM.

The test is the same for the next values; noted with them: read-out: Inhibition of TDP-43 Inclusion Formation EC50; PC12 TDP-43::GFP cells; arsenite 50 μM, 18 hrs; representative values.
Take `CC(C)(C)c1ccc(S(=O)(=O)Nc2ccc(SCc3nc(OCC(F)(F)F)cc(OCC(F)(F)F)n3)cc2)cc1` [Compound 2-1]: the EC50 amounted to 152 nM.

Turning to `C#CCNCC1(c2ccccc2)CCN(CCCCOC(c2ccc(F)cc2)c2ccc(F)cc2)CC1` [Compound 2-2], the EC50 came out at 290 nM.

Take `OC1(c2ccccc2)CCN(CCCCOC(c2ccc(F)cc2)c2ccc(F)cc2)CC1` [Compound 2-3]: the EC50 came to 1920 nM.

Consider `Cc1ccc2ncnc(Nc3cccc(Cl)c3)c2c1` [Compound 2-4], for which the EC50 is 10 nM.

Take `Cc1cc2cc(CCNS(=O)(=O)c3ccc(Cl)cc3)c(=O)[nH]c2cc1C` [Compound 2-5]: the EC50 was 1290 nM.

As for `COCc1ccc(C(=O)NC(CC(C)C)c2nnc3n2CCN(Cc2cc4ccccc4o2)CC3)o1` (stereo not drawn) [Compound 2-7], the EC50 is 11 nM.

Consider `COc1cccc(CN2CCN(C(=O)c3cc4ccccc4[nH]3)CCC2=O)c1` [Compound 2-8], for which the EC50 is 180 nM.

For the compound `CCN(CC1CCCN(CCc2ccccc2OC)C1)C(=O)c1cc2ccccc2[nH]1` (stereo not drawn) [Compound 2], the EC50 amounted to 74 nM.

Consider `COc1cc(NC(=O)CCC2CCCN(Cc3ccc(F)c(OC)c3)C2)cc(OC)c1` (stereo not drawn) [Compound 3], for which the EC50 came to 39 nM.

On to `COc1ccccc1OCC(=O)NC1CCCN(c2ccc(C(F)(F)F)cn2)C1` (stereo not drawn) [Compound 4], for which the EC50 was 98 nM.

For `COc1ccc(C2C(C(=O)Nc3ccccc3OC)=C(C)Nc3nc4ccccc4n32)cc1` (stereo not drawn) [Compound 5], the EC50 worked out at 306 nM.

On to `COc1ccc(NC(=O)C(Cc2ccccc2)NS(=O)(=O)c2cccc3cccnc23)cc1` (stereo not drawn) [Compound 6], for which the EC50 came out at 15 nM.

For `CCc1ccc(NC(=O)C(Cc2ccccc2)NS(=O)(=O)c2cccc3cccnc23)cc1` (stereo not drawn) [Compound 7], the EC50 was found to be 139 nM.

Consider Mithramycin A [reference compound], for which the EC50 was 2000 nM.

The next test relates to non-transgenic N2 C. elegans. In words: Motor function in non-transgenic N2 C. elegans. Format: in vivo. Conditions: non-transgenic N2 line; FIG. 19 varying doses, FIG. 21 34.8 μM.
For `CCc1ccc(NC(=O)C(Cc2ccccc2)NS(=O)(=O)c2cccc3cccnc23)cc1` (stereo not drawn) [Compound 7], the motor function result is given as “improves motor function”.

Another test deals with C. elegans expressing human WT TDP-43 (CK405). In words: Motor function in C. elegans expressing human WT TDP-43. Format: in vivo. The following applies: transgenic TDP-43 nematodes, line not specified. The source says: Determining whether compounds delay deterioration of motor function in C. elegans expressing TDP-43 in C. elegans: C. elegans is generally used as a simple in vivo model of disease bridging the gap between in vitro studies and in vivo studies in rodents (J Biol Chem, 2005. 280: 42655-68; J Neurosci, 2009. 29: 9210-8; Neurodegener Dis, 2010. 7: 68-75; each herein incorporated by reference in its entirety). Accordingly, C. elegans lines expressing TDP-43 (WT, G294A and A315T), obtained from Brian Kraemer, can be used to determine whether the indentified compounds ameliorate motor dysfunction associated with TDP-43 expression (J Neurosci, 2010. 30: 16208-19; herein incorporated by reference in its entirety). […] Movement and survival are calculated at adult days 1, 3 and 5, using methods described in the art (see, e.g., J. Neurosci. 2010 December 1, 30(48):16208-19; IEEE Trans Biomed Eng. 2004 October 51(10):1811-20, each herein incorporated by reference in its entirety).
In one example, eggs (C. elegans expressing A315T TDP-43, line CK426) were plated on agar containing the test compound. On day 4, movement of C. elegans was quantified and moved to plates with fresh compounds. On day 5, movement of C. elegans was again quantified. […]
Turning to `CCc1ccc(NC(=O)C(Cc2ccccc2)NS(=O)(=O)c2cccc3cccnc23)cc1` (stereo not drawn) [Compound 7], the motor function entry was “improves motor function”.

The next test has as its system mutant TDP-43 inclusions in human BE-M17 neuroblastoma cells. The test can be described thus: Arsenite-induced TDP-43 inclusion formation in BE-M17 cells. Format: cell-based. The following applies: arsenite 0.5 mM, 1 hr, 10 μg/ml. From the text:
The inventors transfected human BE-M17 neuroblastoma cells with WT TDP-43, TDP-4386-414 or TDP-43216-414 constructs N-terminally tagged with GFP. Full length WT TDP-43 localized to the nucleus under basal conditions (FIG. 15, WT TDP-43 shown). To investigate TDP-43 aggregation under the stressful conditions, cells were exposed to arsenite, an agent classically used to induce SGs (Biochem Soc Trans, 2002, 30, 963-9; J Cell Biol, 2000, 151, 1257-68; J Cell Biol, 1999, 147, 1431-42; each herein incorporated by reference in its entirety). Arsenite causes stress through multiple mechanisms (Toxicol Appl Pharmacol, 2001, 177, 132-48; herein incorporaed by reference in its entirety). Arsenite directly induces oxidative stress by reacting with oxygen in a reaction similar to the Fenton reaction, and arsenite also uses up glutathione, which causes further oxidative stress (Toxicol Appl Pharmacol, 2001, 177, 132-48; herein incorporaed by reference in its entirety). Upon exposure to arsenite (1 hr) WT TDP-43 remained largely nuclear, but a small amount translocated to the cytoplasm where it formed inclusions (FIG. 15A, right panels, arrows). To determine whether the inclusions co-localized with SGs, we co-labeled the cells with antibodies to SG markers, including TIA-1, eIF3 and poly-A binding protein (PABP) (FIG. 15). […] Co-localization with other SG markers is also observed. […]
For `C[C@@H]1C[C@@H]([C@H](O)CC2CC(=O)NC(=O)C2)C(=O)[C@@H](C)C1` [cycloheximide], the “formation of inclusions composed of mutant TDP-43 constructs” value is “reversible”.
